Measured values taken from the supplement of paper PMC10307832.

Columns and labels:
Assay in all cases: relative viability (nuclei count vs DMSO), 5 days (fraction); higher = more cells survive
GW-2580 + Dasatinib = compound: COC1=CC=C(C=C1)COC2=C(C=C(C=C2)CC3=CN=C(N=C3N)N)OC [GW-2580] + Cc1nc(Nc2ncc(C(=O)Nc3c(C)cccc3Cl)s2)cc(N2CCN(CCO)CC2)n1 [Dasatinib] (partner 0.075 µM)
Procedure, shortened: (§1)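 Five library-drug doses in √10 steps were combined with a fixed anchor-drug dose, or a single drug was given alone, by pin tool to lung cancer cell lines in 1536-well plates the day after seeding. Nuclei were stained and counted after 5 days. Relative viability is the nuclei count in treated wells over that in vehicle wells, taken as the median of duplicate plates.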

Fedratinib + Decitabine = compound: Cc1cnc(Nc2ccc(OCCN3CCCC3)cc2)nc1Nc1cccc(S(=O)(=O)NC(C)(C)C)c1 [Fedratinib] + Nc1ncn([C@H]2C[C@H](O)[C@@H](CO)O2)c(=O)n1 [Decitabine] (partner 2 µM)
Procedure, shortened: as §1

Fedratinib + Olaparib = compound: Cc1cnc(Nc2ccc(OCCN3CCCC3)cc2)nc1Nc1cccc(S(=O)(=O)NC(C)(C)C)c1 [Fedratinib] + O=C(c1cc(Cc2n[nH]c(=O)c3ccccc23)ccc1F)N1CCN(C(=O)C2CC2)CC1 [Olaparib] (partner 8 µM)
Procedure, shortened: as §1

GW-2580 + Lapatinib = compound: COC1=CC=C(C=C1)COC2=C(C=C(C=C2)CC3=CN=C(N=C3N)N)OC [GW-2580] + CS(=O)(=O)CCNCc1ccc(-c2ccc3ncnc(Nc4ccc(OCc5cccc(F)c5)c(Cl)c4)c3c2)o1 [Lapatinib] (partner 2 µM)
Procedure, shortened: as §1

Fedratinib + Crizotinib = compound: Cc1cnc(Nc2ccc(OCCN3CCCC3)cc2)nc1Nc1cccc(S(=O)(=O)NC(C)(C)C)c1 [Fedratinib] + C[C@@H](Oc1cc(-c2cnn(C3CCNCC3)c2)cnc1N)c1c(Cl)ccc(F)c1Cl [Crizotinib] (partner 1 µM)
Procedure, shortened: as §1

Fedratinib + Navitoclax = compound: Cc1cnc(Nc2ccc(OCCN3CCCC3)cc2)nc1Nc1cccc(S(=O)(=O)NC(C)(C)C)c1 [Fedratinib] + CC1(C)CCC(c2ccc(Cl)cc2)=C(CN2CCN(c3ccc(C(=O)NS(=O)(=O)c4ccc(N[C@H](CCN5CCOCC5)CSc5ccccc5)c(S(=O)(=O)C(F)(F)F)c4)cc3)CC2)C1 [Navitoclax] (partner 0.5 µM)
Procedure, shortened: as §1

| Cell Line | relative viability (GW-2580 + Dasatinib; first compound 0.08 µM) | relative viability (GW-2580 + Dasatinib; first compound 0.8 µM) | relative viability (GW-2580 + Dasatinib; first compound 2.53 µM) | relative viability (GW-2580 + Dasatinib; first compound 8 µM) | relative viability (Fedratinib + Decitabine; first compound 0.1 µM) | relative viability (Fedratinib + Decitabine; first compound 0.3162 µM) | relative viability (Fedratinib + Decitabine; first compound 1 µM) | relative viability (Fedratinib + Olaparib; first compound 0.1 µM) | relative viability (Fedratinib + Olaparib; first compound 0.3162 µM) | relative viability (Fedratinib + Olaparib; first compound 1 µM) | relative viability (GW-2580 + Lapatinib; first compound 0.08 µM) | relative viability (GW-2580 + Lapatinib; first compound 0.8 µM) | relative viability (GW-2580 + Lapatinib; first compound 2.53 µM) | relative viability (GW-2580 + Lapatinib; first compound 8 µM) | relative viability (Fedratinib + Crizotinib; first compound 0.3162 µM) | relative viability (Fedratinib + Crizotinib; first compound 1 µM) | relative viability (Fedratinib + Crizotinib; first compound 0.1 µM) | relative viability (Fedratinib + Navitoclax; first compound 0.1 µM) | relative viability (Fedratinib + Navitoclax; first compound 0.3162 µM) | relative viability (Fedratinib + Navitoclax; first compound 1 µM) |
| --- | --- | --- | --- | --- | --- | --- | --- | --- | --- | --- | --- | --- | --- | --- | --- | --- | --- | --- | --- | --- |
| NCI-H522 | 0.95 | 0.787 | 0.795 | 1.02 | 0.634 | 0.698 | 0.668 | 0.655 | 0.643 | 0.615 | – | – | – | – | – | – | – | – | – | – |
| NCI-H650 | 0.468 | 0.538 | 0.396 | 0.424 | 0.349 | 0.372 | 0.34 | 0.367 | 0.372 | 0.379 | 0.93 | 1.09 | 0.801 | 0.864 | 0.682 | 0.668 | – | – | – | – |
| NCI-H661 | 0.983 | 0.943 | 0.689 | 0.685 | 0.566 | 0.54 | 0.423 | 0.713 | 0.77 | 0.748 | 0.448 | 0.647 | 0.378 | 0.459 | 0.948 | 1.04 | 0.964 | – | – | – |
| NCI-H1299 | – | – | – | – | – | – | – | 0.955 | 0.881 | 0.904 | 1.04 | 0.979 | 0.959 | 0.886 | 0.946 | 0.94 | 0.884 | 1.04 | 1.06 | 1.01 |
| NCI-H1395 | 0.41 | 0.409 | 0.401 | 0.427 | 0.628 | 0.738 | 0.622 | 0.416 | 0.468 | 0.444 | 0.994 | 0.95 | 0.88 | 0.912 | – | – | – | 1.3 | 1.13 | 0.962 |
| NCI-H1563 | 0.473 | 0.534 | 0.458 | 0.447 | – | – | – | – | – | – | 0.895 | 0.857 | 0.831 | 0.863 | 0.893 | 0.842 | 0.898 | – | – | – |
| NCI-H1648 | – | – | – | – | 0.473 | 0.51 | 0.443 | 0.655 | 0.59 | 0.691 | – | – | – | – | – | – | – | – | – | – |
| NCI-H1703 | – | – | – | – | – | – | – | – | 0.359 | 0.291 | 1.1 | 1.32 | 1.2 | 0.946 | 0.51 | 0.533 | 0.629 | 0.482 | 0.955 | 0.498 |
| NCI-H1793 | 0.415 | 0.451 | 0.355 | 0.399 | 0.501 | 0.526 | 0.406 | 0.998 | 0.941 | 0.775 | 0.803 | 0.74 | 0.571 | 0.459 | – | – | – | 0.295 | 0.456 | 0.476 |
| NCI-H2228 | 0.557 | 0.551 | 0.441 | 0.488 | – | – | – | 0.648 | 0.631 | 0.495 | 0.893 | 1.28 | 1.38 | 1.02 | 0.46 | 0.392 | 0.528 | 0.631 | 0.838 | 0.599 |
| NCI-H2342 | 0.329 | 0.327 | 0.297 | 0.332 | 0.753 | 0.759 | 0.745 | 0.462 | 0.456 | 0.472 | – | – | – | – | – | – | – | – | – | – |
| SW 900 | 0.787 | 0.505 | 0.802 | 0.585 | 0.399 | 0.425 | 0.516 | 0.95 | 0.887 | 0.695 | – | – | – | – | – | – | – | – | – | – |
